# Source: paper PMC11172478, “1,3,5-Triazine as Branching Connector for the Construction of Novel Antimicrobial Peptide Dendrimers: Synthesis and Biological Characterization” (International Journal of Molecular Sciences, 2024)
# Starred links: 1 amine or outer side, 2 acyl side, 3 side chain; linkers in the order of their positions; H or OH if unused. Positions of bridges follow the written chain, without caps; N, C: chain ends. Residues, ends and D or L forms follow the SMILES beside them. Chains are numbered I, II in the order given. X1 = O=C(c1ccc(Oc2nc(NCCN[*:2])nc(NCCN[*:3])n2)cc1)[*:1]
# Experiments:
# MDR E. coli = assay type: cell-based; conditions: 24 h
# Method: (§1) E. coli ATCC 25922, P. aeruginosa ATCC 27853, S. aureus ATCC 29213, P. aeruginosa 666 SJD (ciprofloxacin-resistant), P. aeruginosa P12, P13, P15, P16 and P17 (MDR isolates) and E. coli 7987, 5545, 8248, 13974, 7259 and 208691 (MDR isolates) from our own collection were included in the present study.
# (§2) The antimicrobial activity of the dendrimers was evaluated against E. coli ATCC 25922, P. aeruginosa ATCC 27853 and S. aureus ATCC 29213 strains. The MIC values were determined by the broth microdilution method. Briefly, the different strains were grown in Muller Hinton broth cation adjusted (MHBCA) medium overnight at 37 °C with shaking at 200 rpm. The bacterial cultures were then adjusted to OD625nm of 0.08–0.1, and 5 μL of each diluted suspension was added to 96-well plates previously filled with MHBCA and serially diluted peptides. Plates were incubated for 24 h at 37 °C. Finally, the MIC was determined macroscopically, based on the visual turbidity of the wells.
# MDR P. aeruginosa = assay type: cell-based; conditions: 24 h
# Method: as §1, §2
# L-929 fibroblasts = assay: Cytotoxicity, resazurin reduction; assay type: cell-based, murine; conditions: L-929 cells, 24 h, resazurin fluorescence
# Method: (§3) The cytotoxicity assay was performed in the human hepatocellular carcinoma cell line Hep G2 ATCC and murine L-929 fibroblasts (NCTC clone 929, ECACC 88102702) obtained from the laboratory of Dr. Pérez-Tomás (Cancer Cell Biology, University of Barcelona). The cytotoxicity of the selected peptides was determined by measuring the intracellular reduction of resazurin sodium salt (Sigma-Aldrich, St. Louis, MO, USA). Briefly, HepG2 and L-929 cells were grown in RPMI 1640 or MEM medium, respectively (Biochrom AG, Berlin, Germany), supplemented with 10% fetal bovine serum. Cells from pre-confluent cultures were harvested with trypsin-EDTA and maintained at 37 °C in 5% CO2. Then, 100 µL of each cell line was seeded into 96-well flat-bottomed microplates and incubated for 24 h at 37 °C. The medium was then replaced with 200 μL of medium containing the dendrimers at concentrations ranging from 64 to 0.125 μg/mL and the microplates were incubated for 24 h at 37 °C. Next, 20 μL of resazurin was added to each well and the plates were incubated under the same conditions for 24 h. Fluorescence was measured using a multiwell scanning spectrophotometer at an excitation wavelength of 530 nm and an emission wavelength of 590 nm. Cytotoxicity was then calculated by comparing the fluorescence of the treated and untreated cells (Figure S22).
# [1] = system: Hep G2 hepatocellular carcinoma cell line; assay: Cytotoxicity, resazurin reduction; assay type: cell-based, human; conditions: HepG2 cells, 24 h, resazurin fluorescence
# Method: as §3
# P. aeruginosa ATCC 27853 [2] = assay: Time-kill curves; assay type: cell-based; conditions: P. aeruginosa ATCC 27853, ½ MIC
# Method: The death kinetics of the active dendrimers were examined by plotting their time-kill curves against E. coli ATCC 25922 and P. aeruginosa ATCC 27853. The dendrimers were added to a starting bacterial inoculum of 10^6 CFU/mL in 5 mL of MHBCA medium. Dendrimers were tested at three different concentrations: MIC, ½ MIC and ¼ MIC. They were incubated for 24 h at 37 °C with shaking at 200 rpm. Samples were aseptically collected at 0, 1, 2, 4 and 6 h, serially diluted in Ringer ¼ and plated on Tryptone soy agar for colony counting.
# The response of the microbial strains to the dendrimers was determined based on a logarithmic decrease in viable bacteria. A compound was considered active if it caused a reduction of ≥1 log10 CFU/mL, compared to the corresponding counts at time 0 h. In addition, a dendrimer was considered bactericidal if it caused a reduction of ≥3 log10 CFU/mL [40].
# [3] = Black lipid bilayers conductance; conditions: DiPhPC/PS 4:1 in n-decane, 1 M KCl, −80, −120 and −180 mV
# Method: The basic methods have been described previously. Membranes were prepared from 1% lipid a mixture of di-phytanoyl-phosphatidylcholine/di-phytanoylphosphatidylserine (DiPhPC/PS) in a molar ratio of 4:1 in n-decane (Avanti Polar Lipids, Delfzyl, The Netherlands). Bilayers were painted over a 2 mm^2 hole in a Teflon divider separating two compartments containing 5 mL each of a bathing solution of 1MKCl. Voltages were applied across the membrane via calomel electrodes connected by a salt bridge. The resultant current was amplified 10^8-fold by a current amplifier and recorded on a Rikadenski chart recorder. A concentration of 1 μg/mL of the dendrimer was used based on the results of Wu et al..
# E. coli 208691 = assay: Intracellular accumulation of acridine orange; assay type: cell-based; conditions: E. coli 208691, dendrimers at MIC, ½ MIC, ¼ MIC, AO 0.25 µg/mL, 30 min
# Method: (§4) The assay was performed as previously described by Armengol et al. including control and clinical strains (E. coli 208691 and P. aeruginosa 666 SJD) previously studied by our group. Briefly, 96-well flat-bottomed microtiter plates (Guangzhou Jet Bio-Filtration Co., Ltd., Mianyang, China) were used. Overnight cultures were diluted in 1/4 Ringer’s solution to an OD520nm of 1.5, and 100 µL was added to the wells previously filled with 100 µL of Ringer’s solution. Acridine Orange (AO) was added to a final concentration of 0.25 µg/mL. The inoculated plates were then incubated for 30 min with shaking, after which the fluorescence was measured in a FLUOstar OPTIMA fluorescence microplate reader (BMG Labtech, Ortenberg, Germany).
# (§5) To determine the uptake and accumulation of AO by bacteria, different scenarios were compared. First, bacteria were examined in the presence of PAβN at 20 µg/mL, and then in the presence of different concentrations of the dendrimers at (MIC, ½ MIC, ¼ MIC). The results in each condition were expressed as the percentage increase in fluorescence with respect to the control.
# P. aeruginosa ATCC 27853 [4] = assay: Intracellular accumulation of acridine orange; assay type: cell-based; conditions: P. aeruginosa ATCC 27853, dendrimers at MIC
# Method: as §4, §5
Compound,MIC values in MDR E. coli (span over isolates) (MDR E. coli),MIC values in MDR P. aeruginosa (span over isolates) (MDR P. aeruginosa),"% Cytotoxicity at 64µg/mL, L-929 (L-929 fibroblasts)","% Cytotoxicity at 64µg/mL, HepG2 [1]",time-kill activity at ½ MIC (in words) (P. aeruginosa ATCC 27853 [2]),channel formation in planar lipid bilayers (conductance) [3],AO accumulation (in words) (E. coli 208691),AO accumulation (in words) (P. aeruginosa ATCC 27853 [4])
"CC(C)C[C@H](NC(=O)[C@H](CCCCN)NC(=O)[C@H](CC(C)C)NC(=O)[C@H](CCCCN)NC(=O)[C@H](CC(C)C)Nc1nc(NCCNC(=O)[C@H](CCCCN)NC(=O)[C@H](CC(C)C)NC(=O)[C@H](CCCCN)NC(=O)[C@H](CC(C)C)NC(=O)[C@H](CCCCN)NC(=O)[C@@H](N)CC(C)C)nc(NCCNC(=O)[C@H](CCCCN)NC(=O)[C@H](CC(C)C)NC(=O)[C@H](CCCCN)NC(=O)[C@H](CC(C)C)NC(=O)[C@H](CCCCN)NC(=O)[C@@H](N)CC(C)C)n1)C(=O)N[C@@H](CCCCN)C(N)=O [Dendrimer 2, H-[(LK)3-EDA]2-TA-(LK)3-NH2]",2 to 8 µg/mL,16 to 32 µg/mL,0%,0%,higher antimicrobial activity than dendrimer 1,did not induce membrane channels,,
"CC(C)C[C@H](NC(=O)c1ccc(Oc2nc(NCCNC(=O)[C@H](CCCCN)NC(=O)[C@H](CC(C)C)NC(=O)[C@H](CCCCN)NC(=O)[C@H](CC(C)C)NC(=O)[C@H](CCCCN)NC(=O)[C@@H](N)CC(C)C)nc(NCCNC(=O)[C@H](CCCCN)NC(=O)[C@H](CC(C)C)NC(=O)[C@H](CCCCN)NC(=O)[C@H](CC(C)C)NC(=O)[C@H](CCCCN)NC(=O)[C@@H](N)CC(C)C)n2)cc1)C(=O)N[C@@H](CCCCN)C(=O)N[C@@H](CC(C)C)C(=O)N[C@@H](CCCCN)C(=O)N[C@@H](CC(C)C)C(=O)N[C@@H](CCCCN)C(N)=O [Dendrimer 1, H-[(LK)3]2-(EDA)2-TA-PHBA-(LK)3-NH2] (I: LKLKLK-NH2 / II: H-LKLKLK / III: H-LKLKLK; linker I:N-II:C-III:C via X1)",,,2.8%,0%,,did not induce membrane channels,marked increase in AO accumulation,slight increase in AO accumulation
